The source made the active and inactive calls. No cut-off for these calls is given here.
Experiments:
[1] = target: Neuronal acetylcholine receptor subunit alpha-7 (Homo sapiens, UniProt P36544); test: Positive allosteric modulatory activity against alpha7 nAChR in human IMR-32 cells assessed as potentiation of PNU-282987-induced Ca2+ […] in presence of alpha-bungarotoxin/methyllycaconitine by FLIPR assay; assay type: cell-based
[2] = Metabolic stability in mouse liver microsomes assessed as compound remaining at 1 uM preincubated for 5 mins followed by NADPH addition and measured after 30 mins by LC-MS/MS analysis; assay type: ADME, Microsome; conditions: read-out: Stability
[3] = Protein binding in dog plasma at 5 uM incubated for 16 hrs under shaking condition by LC/MS/MS based rapid equilibrium dialysis method; assay type: ADME, cell-free, Canis lupus familiaris; conditions: read-out: PPB (converted)
[4] = AUClast in BALB/c mouse at 10 mg/kg, po after 0.25 to 144 hrs by LC-MS/MS analysis; assay type: ADME, organism-based; set-up: dose 10 mg/kg, time upper 144 hr, time lower 0.25 hr, route oral; conditions: in vivo
[5] = Cmax in Beagle dog at 10 mg/kg, po after 0.25 to 144 hrs by LC-MS/MS analysis; assay type: ADME, organism-based, Canis lupus familiaris; set-up: dose 10 mg/kg, route oral; conditions: in vivo
[6] = Tmax in Wistar rat at 1 mg/kg, iv after 0.083 to 144 hrs by LC-MS/MS analysis; assay type: ADME, organism-based; conditions: in vivo
[7] = Tmax in Beagle dog at 10 mg/kg, po after 0.25 to 144 hrs by LC-MS/MS analysis; assay type: ADME, organism-based, Canis lupus familiaris; conditions: in vivo
[8] = Tmax in BALB/c mouse at 1 mg/kg, iv after 0.083 to 144 hrs by LC-MS/MS analysis; assay type: ADME, organism-based; conditions: in vivo
[9] = Half life in BALB/c mouse at 1 mg/kg, iv after 0.083 to 144 hrs by LC-MS/MS analysis; assay type: ADME, organism-based; conditions: in vivo
[10] = Oral bioavailability in Wistar rat at 10 mg/kg after 0.25 to 144 hrs by LC-MS/MS analysis; assay type: ADME, organism-based; conditions: in vivo
[11] = Oral bioavailability in Beagle dog at 10 mg/kg after 0.25 to 144 hrs by LC-MS/MS analysis; assay type: ADME, organism-based, Canis lupus familiaris; conditions: in vivo
[12] = Oral bioavailability in BALB/c mouse at 10 mg/kg after 0.25 to 144 hrs by LC-MS/MS analysis; assay type: ADME, organism-based; conditions: in vivo
[13] = Brain to plasma permeability coefficient, Kp in Wistar rat at 10 mg/kg, po after 24 hrs by LC-MS/MS analysis; assay type: ADME, organism-based
[14] = Tmax in Wistar rat brain at 10 mg/kg, po after 1 to 144 hrs by LC-MS/MS analysis; assay type: ADME, organism-based
[15] = AUCt in Wistar rat brain at 10 mg/kg, po after 1 to 144 hrs by LC-MS/MS analysis; assay type: ADME, organism-based
[16] = target: Cytochrome P450 2D6 (Homo sapiens, UniProt P10635); test: Inhibition of CYP2D6 (unknown origin) up to 10 uM; assay type: ADME
[17] = target: Cytochrome P450 2C9 (Homo sapiens, UniProt P11712); test: Inhibition of CYP2C9 (unknown origin) up to 10 uM; assay type: ADME
[18] = target: Cytochrome P450 2E1 (Homo sapiens, UniProt P05181); test: Inhibition of CYP2E1 (unknown origin) up to 10 uM; assay type: ADME
[19] = system: Rattus norvegicus; test: Memory enhancement effect in time-delay induced Wistar rat model of amnesia assessed as increase in exploration time for novel object in retention trial at 3 mg/kg, po administered as single dose and measured on day 9 by novel object recognition test (reference value: 12.06 sec); assay type: functional
[20] = system: Rattus norvegicus; test: Memory enhancement effect in time-delay induced Wistar rat model of amnesia assessed as increase in exploration time for novel object in retention trial at 1 mg/kg, po administered as single dose and measured on day 9 by novel object recognition test (reference value: 12.06 sec); assay type: functional
[21] = system: Rattus norvegicus; test: Memory enhancement effect in scopolamine-induced Wistar rat model of amnesia assessed as exploration time for object1 in acquisition trial at 0.15 mg/kg, po administered as single dose and measured on day 8 by novel object recognition test (reference value: 16.11 sec); assay type: functional
[22] = system: Rattus norvegicus; test: Memory enhancement effect in scopolamine-induced Wistar rat model of amnesia assessed as exploration time for object1 in acquisition trial at 0.5 mg/kg, po administered as single dose and measured on day 8 by novel object recognition test (reference value: 16.11 sec); assay type: functional
[23] = system: Rattus norvegicus; test: Memory enhancement effect in scopolamine-induced Wistar rat model of amnesia assessed as increase in novel object discrimination index at 0.15 mg/kg, po administered as single dose and measured on day 9 by novel object recognition test (reference value: 0.21); assay type: functional
[24] = system: Rattus norvegicus; test: Memory enhancement effect in time-delay induced Wistar rat model of amnesia assessed as exploration time for familiar object at 3 mg/kg, po administered as single dose after acquisition trial by novel object recognition test (reference value: 10.6 sec); assay type: functional
[25] = system: Rattus norvegicus; test: Memory enhancement effect in time-delay induced Wistar rat model of amnesia assessed as exploration time for novel object at 1 mg/kg, po administered as single dose after acquisition trial by novel object recognition test (reference value: 12.81 sec); assay type: functional
[26] = system: Rattus norvegicus; test: Memory enhancement effect in time-delay induced Wistar rat model of amnesia assessed as exploration time for novel object in retention trial at 0.05 mg/kg, po for 7 days and measured on day 8 by novel object recognition test (reference value: 15.37 sec); assay type: functional
[27] = system: Rattus norvegicus; test: Memory enhancement effect in scopolamine-induced Wistar rat model of amnesia assessed as exploration time for familiar object in retention trial at 0.05 mg/kg, po for 7 days and measured on day 8 by novel object recognition test (reference value: 8.59 sec); assay type: functional
[28] = system: Rattus norvegicus; test: Memory enhancement effect in scopolamine-induced Wistar rat model of amnesia assessed as increase in discrimination index at 0.15 mg/kg, po for 7 days and measured on day 8 by novel object recognition test (reference value: 0.21); assay type: functional
[29] = system: Rattus norvegicus; test: Improvement in social recognition time delay-induced Sprague-Dawley rat model of amnesia assessed as reduction in recognition index at 1 mg/kg, po administered as single dose prior to 1 hr training and measured after 30 mins (reference value: 1); assay type: functional
[30] = system: Rattus norvegicus; test: Improvement in social recognition scopolamine-induced Sprague-Dawley rat model of amnesia assessed as increase in reduction in social investigation time at 1 mg/kg, po administered as single dose prior to 1 hr training and measured after 30 mins (reference value: 9.81%); assay type: functional; set-up: scale not given: the % may be the effect or the level left
[31] = system: Rattus norvegicus; test: Improvement in social recognition time delay-induced Sprague-Dawley rat model of amnesia assessed as increase in reduction in social investigation time at 0.50 mg/kg, po for 7 days and measured on day 9 (reference value: -0.5%); assay type: functional; set-up: scale not given: the % may be the effect or the level left
[32] = system: Rattus norvegicus; test: Improvement in social recognition time delay-induced Sprague-Dawley rat model of amnesia assessed as reduction in recognition index at 0.05 mg/kg, po for 7 days and measured on day 9 (reference value: 1.05); assay type: functional
[33] = Drug level in Sprague-Dawley rat plasma at 0.15 mg/kg, po for 7 days; assay type: ADME, organism-based
[34] = system: Rattus norvegicus; test: Improvement in social recognition scopolamine-induced Sprague-Dawley rat model of amnesia assessed as increase in reduction in social investigation time at 0.50 mg/kg, po for 7 days measured after 24 hrs (Rvb =6.59%); assay type: functional; set-up: scale not given: the % may be the effect or the level left
[35] = Drug level in scopolamine-induced Sprague-Dawley rat plasma at 0.15 mg/kg, po for 7 days; assay type: ADME, organism-based

Cytochrome P450 2E1, sequence (P05181 whole entry): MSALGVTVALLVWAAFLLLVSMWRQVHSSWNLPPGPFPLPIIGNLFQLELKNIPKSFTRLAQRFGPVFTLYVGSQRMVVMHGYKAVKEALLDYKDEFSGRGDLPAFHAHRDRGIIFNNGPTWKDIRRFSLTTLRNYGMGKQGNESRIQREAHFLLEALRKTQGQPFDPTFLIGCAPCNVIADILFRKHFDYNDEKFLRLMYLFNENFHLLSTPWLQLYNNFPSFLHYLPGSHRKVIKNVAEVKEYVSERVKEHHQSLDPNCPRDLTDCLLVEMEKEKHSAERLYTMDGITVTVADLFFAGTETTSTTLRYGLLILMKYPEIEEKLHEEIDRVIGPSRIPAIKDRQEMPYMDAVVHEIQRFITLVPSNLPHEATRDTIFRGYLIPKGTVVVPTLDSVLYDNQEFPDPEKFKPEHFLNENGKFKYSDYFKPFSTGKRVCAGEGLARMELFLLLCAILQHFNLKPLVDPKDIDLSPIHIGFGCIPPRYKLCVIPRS
Cytochrome P450 2C9, sequence (P11712 whole entry): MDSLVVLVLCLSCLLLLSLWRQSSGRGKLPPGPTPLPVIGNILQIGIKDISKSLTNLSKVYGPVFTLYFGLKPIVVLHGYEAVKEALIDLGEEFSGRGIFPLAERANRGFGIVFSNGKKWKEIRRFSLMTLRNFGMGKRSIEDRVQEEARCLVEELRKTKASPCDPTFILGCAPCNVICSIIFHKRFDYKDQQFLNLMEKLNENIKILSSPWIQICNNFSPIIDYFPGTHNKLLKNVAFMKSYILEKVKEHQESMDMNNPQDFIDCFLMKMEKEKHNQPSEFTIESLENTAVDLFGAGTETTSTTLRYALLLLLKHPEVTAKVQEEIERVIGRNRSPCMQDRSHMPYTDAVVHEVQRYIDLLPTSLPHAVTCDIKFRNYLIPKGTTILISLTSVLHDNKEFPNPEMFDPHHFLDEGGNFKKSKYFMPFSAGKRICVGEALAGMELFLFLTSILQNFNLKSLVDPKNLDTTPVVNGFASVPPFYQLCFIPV
Cytochrome P450 2D6, sequence (P10635 whole entry): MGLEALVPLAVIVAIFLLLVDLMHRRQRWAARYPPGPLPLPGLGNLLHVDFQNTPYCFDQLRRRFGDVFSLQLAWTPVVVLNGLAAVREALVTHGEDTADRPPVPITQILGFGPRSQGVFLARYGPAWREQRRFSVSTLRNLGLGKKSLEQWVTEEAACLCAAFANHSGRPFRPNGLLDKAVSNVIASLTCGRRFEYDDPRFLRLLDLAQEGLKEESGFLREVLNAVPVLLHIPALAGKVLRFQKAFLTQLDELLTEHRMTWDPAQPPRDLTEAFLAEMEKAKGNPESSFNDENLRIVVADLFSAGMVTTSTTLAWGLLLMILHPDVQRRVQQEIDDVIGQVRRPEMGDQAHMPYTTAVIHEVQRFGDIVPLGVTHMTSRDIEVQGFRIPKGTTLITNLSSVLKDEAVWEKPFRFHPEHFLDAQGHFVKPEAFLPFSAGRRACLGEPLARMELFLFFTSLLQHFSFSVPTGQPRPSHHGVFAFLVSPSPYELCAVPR
Neuronal acetylcholine receptor subunit alpha-7, sequence (P36544 whole entry): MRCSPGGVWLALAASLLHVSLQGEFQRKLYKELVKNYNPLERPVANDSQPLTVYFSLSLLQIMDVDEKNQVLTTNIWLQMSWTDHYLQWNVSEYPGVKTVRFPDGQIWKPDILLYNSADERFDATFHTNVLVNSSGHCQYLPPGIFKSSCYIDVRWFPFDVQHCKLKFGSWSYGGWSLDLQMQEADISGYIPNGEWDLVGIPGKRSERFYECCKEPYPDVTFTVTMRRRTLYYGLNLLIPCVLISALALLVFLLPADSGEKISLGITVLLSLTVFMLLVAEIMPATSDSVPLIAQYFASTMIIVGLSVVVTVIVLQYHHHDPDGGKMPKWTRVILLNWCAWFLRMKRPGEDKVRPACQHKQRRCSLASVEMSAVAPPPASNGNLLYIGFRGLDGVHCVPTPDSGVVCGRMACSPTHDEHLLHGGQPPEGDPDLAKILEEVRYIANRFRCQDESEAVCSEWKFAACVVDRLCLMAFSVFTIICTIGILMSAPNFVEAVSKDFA

Which results are given for `CCC(=O)c1sc(-c2ccc(Cl)cc2)c(C)c1-c1ccc(S(N)(=O)=O)cc1`?
Activity [1]: inactive; remaining at 0.5 h, 1 µM [2]: 96%; fraction unbound at 16 h, 5 µM [3]: 0.0031; AUC(0-t) [4]: 63 µM·h; Cmax [5]: 5000 nM; Tmax [6]: 4.8 min; Tmax [7]: 1.5 h; Tmax [8]: 4.8 min; half-life [9]: 14 h; bioavailability [10]: 74%; bioavailability [11]: 60%; bioavailability [12]: 57%; Kp at 24 h [13]: 8.85; Tmax [14]: 4 h; AUC(0-t) [15]: 301 µM·h; inhibition (INH) [16]: Not Active; inhibition (INH) [17]: Not Active; inhibition (INH) [18]: Not Active; Time [19]: 26.25 s; Time [20]: 25.93 s; Time [21]: 14.08 s; Time [22]: 13.94 s; Activity_index [23]: 0.5; Time [24]: 5.9 s; Time [25]: 24.46 s; Time [26]: 13.91 s; Time [27]: 8.03 s; Activity_index [28]: 0.5; Activity_index [29]: 0.68; Activity [30]: 48.49%; Activity [31]: 46.16%; Activity_index [32]: 0.81; concentration at 168 h [33]: 320 nM; Activity [34]: 25.35%; concentration at 168 h [35]: 180 nM
